Test results published in patent US12134640B2, “Polypeptides and medical uses thereof” (priority 2016, dated 2024).
No end group written: not given here.

What was measured:
S. pyogenes = format: cell-based, Streptococcus pyogenes strain AP1; settings: positive control, 3 μM LL-37
Description: (§1) Viable count assay Bacteria were grown to mid-logarithmic phase (OD620≈ 0.4) in THB-medium at 37° C. with 5% CO2. The bacterial solution was subsequently washed and adjusted to 2×10^9 cfu/ml in 10 mM Tris, pH 7.4, containing 5 mM glucose. S. pyogenes, S. aureus, E. coli or P. aeruginosa were then incubated with 2 μM of purified collagen type VI at 37° C. for 2 h. In some experiments S. pyogenes was incubated with recombinant collagen type VI fragments at various concentrations (0.125, 0.25, 0.5, 1.0 and 2.0 μM) for 2 h at 37° C. Bacteria incubated with Tris-HCl pH 7.4 buffer or 3 μM LL-37 (Innovagen, Lund, Sweden) were used as negative and positive controls respectively. To quantify the bactericidal activity, serial dilutions of the incubation mixtures were plated on blood agar plates, followed by incubation at 37° C. overnight, and the number of colony forming units (cfu) were determined. Hundred percent survival was defined as total survival of bacteria in the same buffer and under the same condition in the absence of collagen type VI or recombinant proteins.

S. aureus = format: cell-based, Staphylococcus aureus strain 111; settings: positive control, 3 μM LL-37
Description: as §1

E. coli = format: cell-based, Escherichia coli strain 1351; settings: positive control, 3 μM LL-37
Description: as §1

P. aeruginosa = format: cell-based, Pseudomonas aeruginosa PAO1; settings: positive control, 3 μM LL-37
Description: as §1

[1] = Membrane permeabilization assay (carboxyfluorescein efflux from liposomes); settings: 10 mM Tris pH 7.4, 37° C., 45 min
Description: Dry lipid films of E. coli polar lipid extract were formed in round-bottom flask walls by dissolving lipids in chloroform, followed by evaporation under N2-flow and subsequently placed in vacuum overnight. Lipid films were re-suspended either by 30 min stirring (E. coli), at 55° C. in an aqueous solution of 100 mM 5(6)-carboxyfluorescein in 10 mM Tris (set to pH 7.4 at 37° C.). Suspensions were then vortexed followed by repeated extrusion through a 100 nm polycarbonate membrane mounted in a LipoFast mini-extruder (Avanti Polar Lipids) in order to reduce multilamellar structures and polydispersity. Un-trapped carboxyfluorescein was removed by gel filtration on Sephadex PD-10 columns (GE Healthcare, Little Chalfont, UK). Membrane permeability was measured by monitoring carboxyfluorescein efflux from the liposomes to the external low concentration environment, resulting in loss of self-quenching and an increased fluorescence signal with excitation and emission wavelengths of 492 and 517 nm, respectively. Fluorescence was measured with a Varioskan Flash Multimode Reader (Thermo Fisher Scientific, Waltham, MA) in black Nunc Delta Surface 96-well plate (Thermo Fisher Scientific, Roskilde, DK). […] The effects of each peptide concentration on the liposome systems were monitored for 45 min, at which point the initial leakage had largely subsided. […]

[2] = test system: S. pyogenes, S. aureus, E. coli and P. aeruginosa; test: Bactericidal assay (viable count), statements on the whole panel; format: cell-based; settings: salt conditions (150 mM NaCl, pH 7.4)
Description: Bacteria were grown to mid-logarithmic phase (OD620≈0.4) in THB medium at 37° C., with 5% CO2. The bacterial solution was subsequently washed and adjusted to 2×10^7 cfu/ml in salt buffer (10 mM Tris-HCl, 150 mM NaCl supplemented with 5 mM glucose; pH 7.4) (both from Sigma-Aldrich). Various concentrations of peptides (0.3, 0.6, 3, 6, 30 and 60 μM) were incubated with bacteria in salt buffer with or without 20% human plasma. Bacteria incubated in only salt buffer with or without plasma were used as negative controls. Samples with LL-37 served as positive controls. The samples were incubated for 2 h at 37° C. with 5% CO2. To quantify the bactericidal activity, serial dilutions of the incubation mixtures were plated on THB agar plates, followed by incubation at 37° C. with 5% CO2 overnight, and the number of cfu were determined. Experiments were performed in triplicate. Hundred percent survival was defined as total survival of bacteria in the same buffer and under the same condition in the absence of peptides.

[3] = test system: RAW 264.7 macrophage cells; test: LPS stimulation of macrophages in vitro (nitrite, Griess reagent); format: cell-based, murine; settings: LPS 10 ng/ml pre-incubated with peptide, 24 h
Description: Murine macrophage-like cells (RAW 264.7; ATCC) were seeded in 96-well plates at 3.5×10^5 cells/well in DMEM (without phenol red, PAA Laboratories) supplemented with 10% fetal calf serum and antibiotic-antimycotic (Invitrogen, Carlsbad, CA). After overnight incubation at 37° C., the cells were washed once with DMEM. LPS (10 ng/ml) was pre-incubated with the peptides for 20 min at room temperature and added to the cells. The cells were subsequently incubated for 24 h at 37° C. Griess reagent (Sigma, St. Louis, MO) was added to culture supernatant in 1:1 ratio followed by 15 min incubation in dark. The absorbance was then measured at 550 nm with a spectrophotometer. The cells with and without LPS stimulation were taken as positive and negative controls for LPS-induction. For the determination of NO production with peptides and LPS treatments, the assay was done in triplicate and the average values were considered for each set. Cells were grown at 37° C. and with 5% CO2 in fully humidified air.

P. aeruginosa 15159 = test: Invasive P. aeruginosa infection model, survival; format: in vivo, Female BALB/c mice
Description: Animal experiments were performed according to a protocol approved by the Local Ethics Committee at Lund University. Animals were housed under standard conditions of light and temperature and had free access to standard laboratory chow and water. P. aeruginosa 15159 bacteria were grown to mid-exponential phase (A620˜0.5), washed and diluted in PBS to 2×10^8 cfu/ml, and kept on ice until injection. Female BALB/c mice, 8 weeks old, were anesthetized with isoflurane and injected intraperitoneally with 100 μL of the bacterial solution, followed by injection of 100 μL SFV33 or GVR28 peptide (1 mg/mL) after 15 minutes, or with 100 μL PBS alone (control group).

[4] = test system: human monocytic THP-1 cells; test: Lactate dehydrogenase (LDH) assay; format: cell-based; settings: at 50 μM
Description: The cytotoxicity experiments were performed as described previously (41). Briefly, human monocytic THP-1 cells (American Type Culture Collection (ATCC), Manassas, VA) were cultured into 96-well plates using Dulbecco's Modified Eagle's medium (DMEM) (PAA Laboratories) supplemented with 10% fetal calf serum. The medium was removed and the cells were subsequently washed with DMEM. Peptides (1, 5, 10, 20, 50 μM) diluted in DMEM were added in triplicates. The LDH based TOX-7 kit (Sigma-Aldrich) was used according to the manufacturer instructions. The amount of LDH release from dead cells was measured at 450 nm. As a positive control 2% Triton X-100 was used.

CC[C@H](C)[C@H](NC(=O)[C@H](CCCCN)NC(=O)[C@H](CCC(=O)O)NC(=O)[C@H](CCCCN)NC(=O)[C@H](CO)NC(=O)[C@H](CCCCN)NC(=O)[C@H](CCCNC(=N)N)NC(=O)[C@H](Cc1ccccc1)NC(=O)[C@H](Cc1ccccc1)NC(=O)[C@H](CC(=O)O)NC(=O)CNC(=O)[C@H](CC(C)C)NC(=O)[C@@H](N)CC(C)C)C(=O)NCC(=O)N[C@@H](CCCCN)C(=O)N[C@@H](CCC(=O)O)C(=O)N[C@@H](Cc1ccccc1)C(=O)N[C@@H](CCCCN)C(=O)N[C@@H](CCCNC(=N)N)C(=O)N[C@H](C(=O)N[C@H](C(=O)N[C@@H](CCC(N)=O)C(=O)N[C@@H](CCCNC(=N)N)C(=O)N[C@H](C(=O)N[C@@H](CCCCN)C(=O)N[C@@H](CC(=O)O)C(=O)N[C@@H](Cc1ccccc1)C(=O)N[C@@H](CC(C)C)C(=O)N[C@@H](CCCNC(=N)N)C(=O)N[C@@H](CC(N)=O)C(=O)N[C@@H](CC(C)C)C(=O)N[C@H](C(=O)N1CCC[C@H]1C(=O)N[C@@H](CCCNC(=N)N)C(=O)N[C@H](C(=O)N[C@@H](CCC(=O)O)C(=O)N[C@@H](CO)C(=O)O)[C@@H](C)O)C(C)C)[C@@H](C)CC)C(C)C)[C@@H](C)CC [LL-37]
killing (S. pyogenes): ~100%
killing (S. aureus): ~100%
killing (E. coli): ~100%
killing (P. aeruginosa): ~100%

FYLKTYRSQAPVLDAIRRLRLRGGS (FYL25 peptide) [peptide derived from VWA domain of collagen type VI α3-chain]
membrane leakage (release of carboxyfluorescein) [1]: highest membrane leakage

GVRPDGFAHIRDFVSRIVRRLNIGPSKV (GVR28 peptide) [peptide derived from VWA domain of collagen type VI α3-chain]
antibacterial activity (viable count) [2]: somewhat reduced effects
LPS-induction of nitrite [3]: significantly suppressed the LPS-induction of nitrite
survival compared with PBS group (P. aeruginosa 15159; experiment terminated after 29 hours): prolonged survival
time at which 50% mortalities were observed (P. aeruginosa 15159; mice infected i.p., single dose 100 μL peptide (1 mg/mL) 15 minutes after infection): 24 h

SFVARNTFKRVRNGFLMRKVAVFFSNTPTRASP [SFV33]
toxicity towards monocytes (LDH release) [4]: exhibited toxicity
